From US20100063047A1 (KALYPSYS, INC., priority 2008, published 2010) come the findings set out here.

The structures appear in SMILES notation.

The target of the first assay is T1, human H1 (Homo sapiens, UniProt P35367).
T1 construct: host or cells: CHO-K1, also expressing mitochondrion-targeted aequorin
T1 sequence (P35367 whole entry): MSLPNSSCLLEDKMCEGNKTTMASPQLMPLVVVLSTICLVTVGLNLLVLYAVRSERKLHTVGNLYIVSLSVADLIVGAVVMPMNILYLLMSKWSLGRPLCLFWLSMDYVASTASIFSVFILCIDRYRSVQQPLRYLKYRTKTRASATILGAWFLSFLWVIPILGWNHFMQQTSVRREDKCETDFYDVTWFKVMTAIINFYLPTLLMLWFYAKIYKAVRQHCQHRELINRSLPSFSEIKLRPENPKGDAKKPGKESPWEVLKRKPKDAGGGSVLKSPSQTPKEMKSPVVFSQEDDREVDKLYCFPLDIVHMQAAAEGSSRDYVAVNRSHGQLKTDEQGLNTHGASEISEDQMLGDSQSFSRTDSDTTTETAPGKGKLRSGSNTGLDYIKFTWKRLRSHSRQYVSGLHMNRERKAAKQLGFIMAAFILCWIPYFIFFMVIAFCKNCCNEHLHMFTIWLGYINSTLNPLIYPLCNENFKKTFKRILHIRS
Kind of assay: In vitro histamine H1 receptor cell-based aequorin bioluminescence antagonist assay.
Conditions: not given
The method, then:
In vitro Histamine Receptor Cell-Based Assays
The cell-based assays utilize an aequorin dependent bioluminescence signal. Doubly-transfected, stable CHO—K1 cell lines expressing human H1 or H4, mitochondrion-targeted aequorin, and (H4 only) human G protein Gα16 are obtained from Perkin-Elmer. Cells are maintained in F12 (Ham's) growth medium, containing 10% (vol./vol.) fetal bovine serum, penicillin (100 IU/mL), streptomycin (0.1 mg/mL), zeocin (0.25 mg/mL) and geneticin (0.40 mg/mL). Cell media components are from Invitrogen, Inc. One day prior to assay, the growth medium is replaced with the same, excluding zeocin and geneticin.
For assay preparation, growth medium is aspirated, and cells are rinsed with calcium-free, magnesium-free phosphate-buffered saline, followed by two to three minute incubation in Versene (Invitrogen, Inc.) at 37° C. Assay medium (DMEM:F12 [50:50], phenol-red free, containing 1 mg/mL protease-free bovine serum albumin) is added to collect the released cells, which are then centrifuged. The cell pellet is re-suspended in assay medium, centrifuged once more, and re-suspended in assay medium to a final density of 5×10^6 cells/mL. Coelenterazine-h dye (500 μM in ethanol) is added to a final concentration of 5 μM, and mixed immediately. The conical tube containing the cells is then wrapped with foil to protect the light-sensitive dye. The cells are incubated for four hours further at room temperature (approximately 21° C.) with end-over-end rotation to keep them in suspension.
Just before assay, the dye-loaded cells are diluted to 0.75×10^6 cells/mL (H1 receptor) or 1.5×10^6 cells/mL (H4 receptor) with additional assay medium. Cells are dispensed to 1536 well micro-titer plates at 3 μL/well. To assay receptor antagonism, 60 nl of 100× concentration test compounds in 100% dimethyl sulfoxide (DMSO) are dispensed to the wells, one compound per well, by passive pin transfer, and the plates are incubated for 15 minutes at room temperature. […] The pipette dispenses 3 μL/well of agonist (histamine, at twice the final concentration, where final concentration is a previously determined EC80) in assay medium, with concurrent bioluminescence detection. Agonist activity of test compounds is excluded by separate assays that measure response to test compounds immediately, without added histamine agonist.
CCD image capture on the Lumilux includes a 5 second baseline read prior to agonist addition, and generally a 40 second read per plate after agonist addition. A decrease in bioluminescence signal (measured either as area-under-the-curve, or maximum signal amplitude minus minimum signal amplitude) correlates with receptor antagonism in a dose dependent manner. The negative control is DMSO lacking any test compound. For antagonist assays, the positive controls are diphenhydramine (2-Diphenylmethoxy-N,N-dimethylethylamine, 10 μM final concentration, H1 receptor) or JNJ7777120 (1-[(5-Chloro-1H-indol-2-yl)carbonyl]-4-methyl-piperazine, 10 μM final concentration, H4 receptor). Efficacy is measured as a percentage of positive control activity.
Broadly, the EC50 is the concentration giving half of the maximal effect. For `COc1ccc(OC)c(CCNc2ncnc3scc(C)c23)c1` [Example 169, N-[2-(2,5-dimethoxyphenyl)ethyl]-5-methylthieno[2,3-d]pyrimidin-4-amine], the EC50 is > 10 µM.

The same assay, now with this note: CHO-K1 cells expressing human H1 and aequorin; histamine at EC80; read-out: H1 Antagonist EC50.
Turning to `Cc1csc2ncnc(NCc3ccc(Cl)cc3Cl)c12` [Example 167, N-[(2,4-dichlorophenyl)methyl]-5-methylthieno[2,3-d]pyrimidin-4-amine], the EC50 was > 10 µM.
As to `Cc1csc2ncnc(N(CCc3ccccc3)Cc3ccccc3)c12` [Example 277, N-benzyl-5-methyl-N-(2-phenylethyl)thieno[2,3-d]pyrimidin-4-amine], the EC50 was > 10 µM.
Regarding `Cc1csc2ncnc(NC3CCCCC3C)c12` (stereo not drawn) [Example 91, 5-methyl-N-(2-methylcyclohexyl)thieno[2,3-d]pyrimidin-4-amine], the EC50 is > 10 µM.
Still for that read-out and setting: in the case of `Cc1csc2ncnc(NCC3CCCCC3)c12` [Example 89, N-(cyclohexylmethyl)-5-methylthieno[2,3-d]pyrimidin-4-amine] it was > 10 µM.
`Cc1csc2ncnc(NCc3ccccc3)c12` [Example 83, N-benzyl-5-methylthieno[2,3-d]pyrimidin-4-amine]: the EC50 is > 10 µM.
On the same count and under the same terms, in the case of `Cc1csc2c(NCCc3ccc(Cl)cc3)ncnc12` [Example 295, N-(4-chlorophenethyl)-7-methylthieno[3,2-d]pyrimidin-4-amine] it was > 10 µM.
As to `Cc1csc2ncnc(NC(C)CC(C)C)c12` (stereo not drawn) [Example 79, 5-methyl-N-(4-methylpentan-2-yl)thieno[2,3-d]pyrimidin-4-amine], the concentration giving a half-maximal response (EC50) is > 10 µM.
For `Cc1csc2ncnc(NCCc3ccccc3Cl)c12` [Example 148, N-[2-(2-chlorophenyl)ethyl]-5-methylthieno[2,3-d]pyrimidin-4-amine], the EC50 was > 10 µM.
Still for that read-out and setting: with `Cc1csc2ncnc(NCCOc3ccccc3)c12` [Example 122, 5-methyl-N-(2-phenoxyethyl)thieno[2,3-d]pyrimidin-4-amine] the figure was > 10 µM; with `Cc1csc2ncnc(N3CCN(c4ccc([N+](=O)[O-])cc4)CC3)c12` [Example 273, 1-{5-methylthieno[2,3-d]pyrimidin-4-yl}-4-(4-nitrophenyl)piperazine], > 10 µM.
Still for that read-out and setting: in the case of `Cc1csc2ncnc(N(CCO)Cc3ccccc3)c12` [Example 226, 2-[benzyl({5-methylthieno[2,3-d]pyrimidin-4-yl})amino]ethan-1-ol] it was > 10 µM; in that of `Cc1csc2ncnc(N3CCSC3)c12` [Example 189, 3-{5-methylthieno[2,3-d]pyrimidin-4-yl}-1,3-thiazolidine], > 10 µM.
Same read-out and setting: in the case of `Cc1csc2ncnc(N3CCN(C)CC3)c12` [Example 192, 1-methyl-4-{5-methylthieno[2,3-d]pyrimidin-4-yl}piperazine] it was > 10 µM; in that of `Cc1csc2ncnc(NCCc3ccc(F)cc3)c12` [Example 17], > 10 µM; in that of `Cc1csc2ncnc(NCCNC(=O)OC(C)(C)C)c12` [Example 154, tert-butyl N-[2-({5-methylthieno[2,3-d]pyrimidin-4-yl}amino)ethyl]carbamate], > 10 µM.
`Cc1csc2ncnc(NCc3ccc(F)c(F)c3)c12` [Example 134, N-[(3,4-difluorophenyl)methyl]-5-methylthieno[2,3-d]pyrimidin-4-amine]: the EC50 was > 10 µM.
Still for that read-out and setting: with `Cc1csc2ncnc(N3CCN(c4ccccc4C#N)CC3)c12` [Example 252, 2-(4-{5-methylthieno[2,3-d]pyrimidin-4-yl}piperazin-1-yl)benzonitrile] the figure was > 10 µM; with `Cc1csc2ncnc(NC3CCCC(C)C3)c12` (stereo not drawn) [Example 41, 5-methyl-N-(3-methylcyclohexyl)thieno[2,3-d]pyrimidin-4-amine], > 10 µM.
`Clc1ccccc1CCNc1ncnc2sc3c(c12)CCCC3` [Example 297]: the EC50 was > 10 µM.
Same read-out and setting: in the case of `Cc1csc2ncnc(NCc3ccc4c(c3)OCO4)c12` [Example 141, N-(2H-1,3-benzodioxol-5-ylmethyl)-5-methylthieno[2,3-d]pyrimidin-4-amine] it was > 10 µM; in that of `CCC(C)CNc1ncnc2scc(C)c12` (stereo not drawn) [Example 67, 5-methyl-N-(2-methylbutyl)thieno[2,3-d]pyrimidin-4-amine], > 10 µM.
Consider `Cc1csc2ncnc(NC3CCCCCC3)c12` [Example 90, N-cycloheptyl-5-methylthieno[2,3-d]pyrimidin-4-amine], for which the EC50 is > 10 µM.
Regarding `c1nc(NCc2ccc(CN3CCOCC3)cc2)c2c3c(sc2n1)CCC3` [Example 309], the EC50 is > 10 µM.
On to `Cc1csc2ncnc(N3CCN(CC4CCCCC4)CC3)c12` [Example 247, 1-(cyclohexylmethyl)-4-{5-methylthieno[2,3-d]pyrimidin-4-yl}piperazine], for which the EC50 is > 10 µM.
Same read-out and setting: with `Cc1csc2nccc(NCCc3ccc(Cl)cc3)c12` [Example 36, N-(4-chlorophenethyl)-3-methylthieno[2,3-b]pyridin-4-amine] the figure was > 10 µM; with `Cc1cccc(CNc2ncnc3scc(C)c23)c1` [Example 95, 5-methyl-N-[(3-methylphenyl)methyl]thieno[2,3-d]pyrimidin-4-amine], > 10 µM.
The same measure, in the same setting: in the case of `Cc1csc2ncnc(NCCc3ccc(Cl)cc3)c12` [Example 46, N-[2-(4-chlorophenyl)ethyl]-5-methylthieno[2,3-d]pyrimidin-4-amine] it was > 10 µM.
On the same count and under the same terms, with `Cc1csc2ncnc(NC3CCC3)c12` [Example 58, N-cyclobutyl-5-methylthieno[2,3-d]pyrimidin-4-amine] the figure was > 10 µM.
`Cc1ccc(C)c(CNc2ncnc3scc(C)c23)c1` [Example 113, N-[(2,5-dimethylphenyl)methyl]-5-methylthieno[2,3-d]pyrimidin-4-amine]: the EC50 was > 10 µM.
Still for that read-out and setting: in the case of `CCCCN(Cc1ccccc1)c1ncnc2scc(C)c12` [Example 235, N-benzyl-N-butyl-5-methylthieno[2,3-d]pyrimidin-4-amine] it was > 10 µM; in that of `CCCCNc1ncnc2scc(-c3ccccc3)c12` [Example 47, N-butyl-5-phenylthieno[2,3-d]pyrimidin-4-amine], > 10 µM; in that of `c1ccc(CCNc2ncnc3sccc23)cc1` [Example 290, N-phenethylthieno[2,3-d]pyrimidin-4-amine], > 10 µM.
Consider `Cc1csc2ncnc(NC(=O)Cc3ccc(Cl)cc3)c12` [Example 31, 2-(4-chlorophenyl)-N-(5-methylthieno[2,3-d]pyrimidin-4-yl)acetamide], for which the EC50 is > 10 µM.
Still for that read-out and setting: in the case of `COC[C@@H]1CCCN1c1ncnc2scc(C)c12` [Example 205, (2S)-2-(methoxymethyl)-1-{5-methylthieno[2,3-d]pyrimidin-4-yl}pyrrolidine] it was > 10 µM; in that of `Cc1csc2ncnc(NC(C)C(C)C)c12` (stereo not drawn) [Example 68, 5-methyl-N-(3-methylbutan-2-yl)thieno[2,3-d]pyrimidin-4-amine], > 10 µM; in that of `Cc1csc2ncnc(NCCc3ccc4c(c3)OCO4)c12` [Example 175, N-[2-(2H-1,3-benzodioxol-5-yl)ethyl]-5-methylthieno[2,3-d]pyrimidin-4-amine], > 10 µM.
On the same count and under the same terms, with `COc1ccccc1CCNc1ncnc2scc(C)c12` [Example 145, N-[2-(2-methoxyphenyl)ethyl]-5-methylthieno[2,3-d]pyrimidin-4-amine] the figure was > 10 µM; with `Cc1csc2ncnc(C(=O)CCc3ccc(Cl)cc3)c12` [Example 25, 3-(4-chlorophenyl)-1-(5-methylthieno[2,3-d]pyrimidin-4-yl)propan-1-one], > 10 µM.
Same read-out and setting: in the case of `Cc1ccccc1CNc1ncnc2scc(C)c12` [Example 99, 5-methyl-N-[(2-methylphenyl)methyl]thieno[2,3-d]pyrimidin-4-amine] it was > 10 µM.
For `Cc1csc2ncnc(NCCC(c3ccccc3)c3ccccc3)c12` [Example 176, N-(3,3-diphenylpropyl)-5-methylthieno[2,3-d]pyrimidin-4-amine], the EC50 was > 10 µM.
Still for that read-out and setting: in the case of `COc1cccc(CNc2ncnc3scc(C)c23)c1` [Example 125, N-[(3-methoxyphenyl)methyl]-5-methylthieno[2,3-d]pyrimidin-4-amine] it was > 10 µM.
